From US9670162B2, “Mitochondrial aldehyde dehyrogenase-2 modulators and methods of use thereof” (The Board of Trustees of the Leland Stanford Junior …, priority 2013, dated 2017)
Where a chain is given by its changes, count along the chain named.

Columns and labels:
NHPLM stability T1/2 = assay type: in vitro ADME; conditions: monkey, liver microsomes
Description: (§1) In vitro ADMET of compounds of the present disclosure was carried out according to known methods in the art. Below are data for certain compounds of the present disclosure.

human ALDH2 wild type = biological target: T1, human ALDH2 wild type (Homo sapiens, UniProt P05091); assay: ALDH2 enzymatic assay (NADH at 340 nm), recombinant wild type enzyme; assay type: biochemical; parameters: key: −: no activation or inhibition; +: activation less than control 1; ++: activation similar to control 1, within 10%; +++: activation more than control 1 and less than control (compound 161); ++++: activation similar to compound 161, within 10%; conditions: activation relative to benchmarks control 1 and compound 161
T1 construct: His-tag (pTrcHis vector) (N); made in house; host or cells: E. coli BL21
T1 sequence (P05091 18-517): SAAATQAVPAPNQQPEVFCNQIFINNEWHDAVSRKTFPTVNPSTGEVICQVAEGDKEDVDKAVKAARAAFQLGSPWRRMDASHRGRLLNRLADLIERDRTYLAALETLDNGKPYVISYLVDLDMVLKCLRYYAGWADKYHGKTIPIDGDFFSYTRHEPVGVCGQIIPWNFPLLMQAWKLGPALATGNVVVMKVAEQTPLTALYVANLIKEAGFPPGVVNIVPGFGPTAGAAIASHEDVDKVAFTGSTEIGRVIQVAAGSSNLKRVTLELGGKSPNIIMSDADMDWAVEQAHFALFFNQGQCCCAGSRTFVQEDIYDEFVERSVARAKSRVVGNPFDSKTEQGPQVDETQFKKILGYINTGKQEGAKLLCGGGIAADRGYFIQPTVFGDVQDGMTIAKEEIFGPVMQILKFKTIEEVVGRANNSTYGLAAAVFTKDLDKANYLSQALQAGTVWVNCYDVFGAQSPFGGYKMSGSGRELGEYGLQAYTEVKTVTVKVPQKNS

MLM stability T1/2 = assay type: in vitro ADME; conditions: mouse, liver microsomes
Description: as §1

[1] = biological target: T2, human ALDH2*2 recombinant mutant enzyme (E487K) (Homo sapiens, UniProt P05091, E504K); assay: ALDH2 enzymatic assay (NADH at 340 nm), recombinant mutant enzyme; assay type: biochemical; parameters: key: −: no activation or inhibition; +: activation less than control 1; ++: activation similar to control 1, within 10%; +++: activation more than control 1 and less than control (compound 161); ++++: activation similar to compound 161, within 10%; conditions: activation relative to benchmarks control 1 and compound 161
T2 construct: His-tag (pTrcHis vector) (N); made in house; host or cells: E. coli BL21
T2 sequence (P05091 18-517 E504K): T1 sequence (P05091 18-517) with E487K

HLM stability T1/2 = assay type: in vitro ADME; conditions: human, liver microsomes; read-out: HLM T1/2
Description: as §1

Aqueous solubility = assay type: physicochemical
Description: as §1

RLM stability T1/2 = assay type: in vitro ADME; conditions: rat, liver microsomes
Description: as §1

LogD (pH 7.4) = assay type: physicochemical
Description: as §1

CYP2D6 = CYP2D6 (Homo sapiens, UniProt P10635); assay: Cyp inhibition 2D6; assay type: in vitro ADME
Description: as §1

CYP3A4 = CYP3A4 (Homo sapiens, UniProt P08684); assay: Cyp inhibition 3A4; assay type: in vitro ADME; conditions: 10 μM
Description: as §1

Caco-2 permeability = assay type: in vitro ADME; conditions: human
Description: as §1

[2] = Plasma protein binding (PPB), human; assay type: in vitro ADME
Description: as §1

CYP2C9 = CYP2C9 (Homo sapiens, UniProt P11712); assay: Cyp inhibition 2C9; assay type: in vitro ADME
Description: as §1

Plasma stability, rat = assay type: in vitro ADME
Description: as §1

CYP2C19 = CYP2C19 (Homo sapiens, UniProt P33261); assay: Cyp inhibition 2C19; assay type: in vitro ADME; conditions: 10 μM
Description: as §1

Plasma stability, human = assay type: in vitro ADME; conditions: plasma
Description: as §1

[3] = Plasma protein binding (PPB), rat; assay type: in vitro ADME
Description: as §1

CYP1A2 = biological target: T3, CYP1A2 (Homo sapiens, UniProt P05177); assay: Cyp inhibition 1A2; assay type: in vitro ADME; conditions: 10 μM
T3 sequence (P05177 1-516): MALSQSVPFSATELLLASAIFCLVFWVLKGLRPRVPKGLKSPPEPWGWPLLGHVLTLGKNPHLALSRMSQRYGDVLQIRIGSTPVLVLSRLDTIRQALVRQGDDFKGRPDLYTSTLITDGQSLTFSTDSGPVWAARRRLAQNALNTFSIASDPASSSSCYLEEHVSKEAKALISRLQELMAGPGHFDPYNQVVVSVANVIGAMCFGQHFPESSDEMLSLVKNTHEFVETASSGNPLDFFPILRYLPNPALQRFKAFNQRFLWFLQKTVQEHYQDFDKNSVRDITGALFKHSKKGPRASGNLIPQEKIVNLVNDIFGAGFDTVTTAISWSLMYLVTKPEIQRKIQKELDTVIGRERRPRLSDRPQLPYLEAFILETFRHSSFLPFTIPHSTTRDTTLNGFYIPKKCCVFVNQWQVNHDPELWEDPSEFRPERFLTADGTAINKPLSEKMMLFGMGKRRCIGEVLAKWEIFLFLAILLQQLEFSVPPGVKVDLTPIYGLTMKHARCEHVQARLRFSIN
Description: as §1

Sequence of CYP3A4 (P08684 whole entry): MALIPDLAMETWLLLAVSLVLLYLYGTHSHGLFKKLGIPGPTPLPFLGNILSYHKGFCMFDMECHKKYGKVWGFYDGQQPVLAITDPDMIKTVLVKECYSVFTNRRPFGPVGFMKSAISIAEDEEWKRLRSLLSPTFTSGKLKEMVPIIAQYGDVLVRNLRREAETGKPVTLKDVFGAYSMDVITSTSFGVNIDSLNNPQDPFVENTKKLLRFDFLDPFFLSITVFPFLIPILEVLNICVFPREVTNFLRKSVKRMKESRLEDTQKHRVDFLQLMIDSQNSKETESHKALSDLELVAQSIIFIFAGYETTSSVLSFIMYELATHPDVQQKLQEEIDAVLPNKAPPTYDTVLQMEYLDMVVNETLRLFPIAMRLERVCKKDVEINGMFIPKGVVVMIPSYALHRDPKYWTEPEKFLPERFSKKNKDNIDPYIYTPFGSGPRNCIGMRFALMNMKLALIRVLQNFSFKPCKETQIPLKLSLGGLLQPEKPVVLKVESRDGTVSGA
Sequence of CYP2C19 (P33261 whole entry): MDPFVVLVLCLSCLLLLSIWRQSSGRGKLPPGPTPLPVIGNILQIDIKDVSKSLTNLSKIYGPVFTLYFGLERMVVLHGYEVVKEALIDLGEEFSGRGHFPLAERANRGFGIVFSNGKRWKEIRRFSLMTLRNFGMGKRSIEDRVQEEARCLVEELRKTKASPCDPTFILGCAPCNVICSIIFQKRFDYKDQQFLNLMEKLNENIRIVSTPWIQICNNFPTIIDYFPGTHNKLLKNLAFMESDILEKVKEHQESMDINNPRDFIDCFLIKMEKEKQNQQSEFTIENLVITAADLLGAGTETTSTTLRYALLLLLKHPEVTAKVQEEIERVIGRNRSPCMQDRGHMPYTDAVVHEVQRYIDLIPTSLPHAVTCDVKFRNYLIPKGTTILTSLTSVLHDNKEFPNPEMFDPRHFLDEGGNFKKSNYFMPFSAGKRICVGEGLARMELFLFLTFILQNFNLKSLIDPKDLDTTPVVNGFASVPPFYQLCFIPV
Sequence of CYP2C9 (P11712 whole entry): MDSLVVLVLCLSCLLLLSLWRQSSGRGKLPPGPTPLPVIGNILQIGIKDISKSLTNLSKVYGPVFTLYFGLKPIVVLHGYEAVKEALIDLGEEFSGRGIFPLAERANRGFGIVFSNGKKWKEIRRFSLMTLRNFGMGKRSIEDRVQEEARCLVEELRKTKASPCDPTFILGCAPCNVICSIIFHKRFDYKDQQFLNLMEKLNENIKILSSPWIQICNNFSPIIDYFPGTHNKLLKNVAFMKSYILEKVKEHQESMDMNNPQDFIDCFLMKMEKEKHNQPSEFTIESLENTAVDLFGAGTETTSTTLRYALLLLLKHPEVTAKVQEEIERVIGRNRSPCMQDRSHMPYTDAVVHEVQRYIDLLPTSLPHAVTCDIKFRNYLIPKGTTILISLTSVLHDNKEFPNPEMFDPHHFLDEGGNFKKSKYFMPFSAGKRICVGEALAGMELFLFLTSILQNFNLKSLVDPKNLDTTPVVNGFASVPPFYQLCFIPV
Sequence of CYP2D6 (P10635 whole entry): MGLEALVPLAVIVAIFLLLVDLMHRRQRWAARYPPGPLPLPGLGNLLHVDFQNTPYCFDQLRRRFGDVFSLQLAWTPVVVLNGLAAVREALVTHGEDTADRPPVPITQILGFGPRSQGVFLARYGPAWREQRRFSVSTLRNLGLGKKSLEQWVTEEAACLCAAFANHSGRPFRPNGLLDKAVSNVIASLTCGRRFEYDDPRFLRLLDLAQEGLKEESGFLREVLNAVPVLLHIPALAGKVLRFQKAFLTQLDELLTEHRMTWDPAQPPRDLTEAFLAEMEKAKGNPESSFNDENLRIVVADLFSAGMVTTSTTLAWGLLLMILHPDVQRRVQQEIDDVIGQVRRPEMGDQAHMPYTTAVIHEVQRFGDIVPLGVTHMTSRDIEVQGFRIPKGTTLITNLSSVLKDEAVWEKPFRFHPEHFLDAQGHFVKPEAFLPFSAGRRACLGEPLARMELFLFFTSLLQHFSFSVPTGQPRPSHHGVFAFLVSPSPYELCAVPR

Compound | ALDH2 (wild-type) (human ALDH2 wild type) | ALDH2 (mutant) [1] | other results
COc1ccc(CNC(=O)c2c(Cl)cccc2OCC2CC2)cc1F [Compound 135] | ++++ | ++++ | half-life (NHPLM stability T1/2): 0.685 min; half-life (MLM stability T1/2): 0.753 min; half-life (HLM stability T1/2): 2.67 min; Aqu. Solu. (Aqueous solubility): 5 µg/mL; half-life (RLM stability T1/2): 0.753 min; logD (LogD (pH 7.4)): 3.8
COc1ccc(CNC(=O)c2c(Cl)cc[n+]([O-])c2OCC2CC2)cc1F [Compound 169] | + | ++ | half-life (NHPLM stability T1/2): 51.3 min; inhibition at 10 µM (CYP2D6): 0.81%; inhibition at 10 µM (CYP3A4): 7.7%; Papp A→B (Caco-2 permeability; A-B, read-out: Caco-2 Papp A-B): 1.22 ×10⁻⁶ cm/s; Papp B→A (Caco-2 permeability; B-A): 13.1 ×10⁻⁶ cm/s; efflux ratio (Caco-2 permeability; ratio, read-out: Caco-2 Papp B-A/A-B): 10.7; half-life (MLM stability T1/2): 100 min; half-life (HLM stability T1/2): 3.85 min; Aqu. Solu. (Aqueous solubility): 272 µg/mL; fraction unbound [2]: 0.098; half-life (RLM stability T1/2): 82.5 min; inhibition at 10 µM (CYP2C9): -12%; Plasma stability Rat (Plasma stability, rat): 100%; inhibition at 10 µM (CYP2C19): 3.5%; Plasma stability Human (Plasma stability, human): 100%; logD (LogD (pH 7.4)): 1.6; fraction unbound [3]: 0.367; inhibition at 10 µM (CYP1A2): 1.1%
COc1ccc(CNC(=O)c2c(C)ccnc2OCC2CCCC2)cc1F [Compound 236] | + | + | 
COc1ccc(CNC(=O)c2c(C)ccnc2OCC2CCNC2)cc1F (centres unmarked) [Compound 237] | + | + | 
COc1ccc(CNC(=O)c2c(C)ccnc2OC2CCC2)cc1F [Compound 238] | + | + | 
COc1ccc(CNC(=O)c2c(Cl)cncc2OCC2CC2)cc1F [Compound 239] | ++ | +++ | 
COc1ccc(CNC(=O)c2c(Cl)cncc2OCC(C)C)cc1F [Compound 240] | + | ++ | 
O=C(NCc1ccc2c(c1)CCCO2)c1c(Cl)ccnc1OCC1CC1 [Compound 244] | ++ | + | 
O=C(NCc1ccc2c(c1)CCO2)c1c(Cl)ccnc1OCC1CC1 [Compound 245] | + | +++ | 
COc1ncc(CNC(=O)c2c(Cl)ccnc2OCC2CC2)cc1F [Compound 246] | + | ++ | 
COc1ccc(CN(C)C(=O)c2c(Cl)ccnc2OCC2CC2)cc1F [Compound 247] | − | − | 
O=C(NCc1ccc(O)c(F)c1)c1c(Cl)ccnc1OCC1CC1 [Compound 248] | − | − | 
COc1ccc(C(C)NC(=O)c2c(Cl)ccnc2OCC2CC2)cc1F (centres unmarked) [Compound 249] | + | + | 
COc1ccc(CNC(=O)c2c(Cl)ccnc2CCC(C)C)cc1F [Compound 250] | + | + | 
COc1ccc(CNC(=O)c2c(OC)ccnc2OCC2CC2)cc1F [Compound 251] | + | + | 
COc1c(F)cc(CNC(=O)c2c(Cl)ccnc2OCC(C)C)cc1F [Compound 252] | + | + | 
CS(=O)(=O)c1ccc(CNC(=O)c2c(Cl)ccnc2OCC2CC2)cc1F [Compound 253] | + | + | 
O=C(NCc1ccc(=O)[nH]c1)c1c(Cl)ccnc1OCC1CC1 [Compound 254] | + | + | 
COc1ccc(CNC(=O)c2c(Cl)ccnc2OCC2CC2)cn1 [Compound 255] | + | + | 
COc1ccc(CNC(=O)c2c(Cl)ccnc2OCC2CC2)cc1C [Compound 256] | + | + | 
O=C(NCc1ccc2occc2c1)c1c(Cl)ccnc1OCC1CC1 [Compound 257] | + | + | 
O=C1OCc2cc(CNC(=O)c3c(Cl)ccnc3OCC3CC3)ccc21 [Compound 258] | + | − | 
O=C(NCc1ccc2ncoc2c1)c1c(Cl)ccnc1OCC1CC1 [Compound 259] | + | + | 
O=C(NCc1ccc2ocnc2c1)c1c(Cl)ccnc1OCC1CC1 [Compound 260] | + | − | 
Cc1nc2ccc(CNC(=O)c3c(Cl)ccnc3OCC3CC3)cc2[nH]1 [Compound 261] | + | + | 
O=C(NCc1ccc2ncsc2c1)c1c(Cl)ccnc1OCC1CC1 [Compound 264] | − | − | 
COc1cc(F)c(CNC(=O)c2c(Cl)ccnc2OCC(C)C)cc1F [Compound 269] | ++++ | ++++ | 
COc1ccc(CNC(=O)c2c(Cl)ccn(C)c2=O)cc1F [Compound 273] | + | + | 
